From PubChem BioAssay (NCI)
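Cultured in 96-well plates, cells were exposed to test compound for 48 hours across five concentrations. GI50 is the concentration that inhibits growth by half. TGI: concentration producing complete growth inhibition.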

Assays:
Experiment in all cases: NCI tumour cell line growth inhibition, 48 h
A498 renal = test system: A498 renal
CAKI-1 renal = test system: CAKI-1 renal
IGROV1 ovarian = test system: IGROV1 ovarian
MOLT-4 leukemia = test system: MOLT-4 leukemia
RXF 393 renal = test system: RXF 393 renal
SN12C renal = test system: SN12C renal
SNB-19 CNS = test system: SNB-19 CNS
SNB-75 CNS = test system: SNB-75 CNS
TK-10 renal = test system: TK-10 renal
BT-549 breast = test system: BT-549 breast

Row | Compound | TGI (A498 renal) [µM] | TGI (CAKI-1 renal) [µM] | TGI (IGROV1 ovarian) [µM] | TGI (MOLT-4 leukemia) [µM] | TGI (RXF 393 renal) [µM] | TGI (SN12C renal) [µM] | TGI (SNB-19 CNS) [µM] | TGI (SNB-75 CNS) [µM] | TGI (TK-10 renal) [µM] | TGI (BT-549 breast) [µM] | GI50 (A498 renal) [µM] | GI50 (BT-549 breast) [µM] | GI50 (CAKI-1 renal) [µM] | GI50 (IGROV1 ovarian) [µM] | GI50 (MOLT-4 leukemia) [µM] | GI50 (SN12C renal) [µM] | GI50 (SNB-19 CNS) [µM] | GI50 (SNB-75 CNS) [µM] | GI50 (TK-10 renal) [µM]
1 | COC(OC)c1cccc2c1C1(O)CCC3(CC21)OCCCCO3 (stereo not given) | > 100 | > 100 | > 100 | > 100 | > 100 | > 100 | > 100 | > 100 | > 100 | – | – | – | – | – | – | – | – | – | –
2 | c1ccc(C2SCC3=Nc4ccccc4CN32)cc1 (stereo not given) | > 100 | > 100 | – | > 100 | 38.9 | > 100 | 57.8 | > 100 | > 100 | > 100 | – | – | – | – | – | – | – | – | –
3 | COP(C)(=O)/C(Cc1ccccc1)=N\O (stereo not given) | – | > 100 | > 100 | > 100 | – | > 100 | > 100 | > 100 | > 100 | – | – | – | – | – | – | – | – | – | –
4 | O=C1OCC(C#Cc2ccccc2)=C1Cl | 38 | 26.7 | > 100 | 46.1 | – | 12.3 | 67.9 | 46.2 | 6.38 | 33.4 | 12 | 7.87 | 3.27 | 1.88 | 14.3 | 2.89 | 7.49 | 19.8 | 1.61
5 | CCOc1ccc2c(c1)/C(=C(\C(Cl)=C(Cl)Cl)[N+](=O)[O-])N2 | > 100 | > 100 | – | > 100 | – | > 100 | > 100 | > 100 | – | > 100 | – | – | – | – | – | – | – | – | –
6 | O=C(N/N=C1\CCc2ccccc2C1)N/N=C1\CCc2ccccc2C1 | – | > 10 | – | > 10 | > 10 | > 10 | > 10 | – | > 10 | > 10 | – | – | – | – | – | – | – | – | –
7 | CCOc1ccccc1/C=C1\NC(=O)N(/C=C2\C(=O)Oc3ccccc3C2=O)C1=O | – | > 100 | > 100 | 64.3 | > 100 | > 100 | > 100 | > 100 | 74.7 | > 100 | – | – | – | – | – | – | – | – | –
8 | CC(=O)Nc1ccc(CNc2cc(=O)[nH]c(=O)[nH]2)cc1 | – | > 100 | > 100 | > 100 | > 100 | > 100 | > 100 | > 100 | > 100 | > 100 | – | – | – | – | – | – | – | – | –
9 | CC(NS(C)(=O)=O)c1ccccc1 (stereo not given) | – | > 100 | > 100 | > 100 | > 100 | > 100 | > 100 | > 100 | > 100 | > 100 | – | – | – | – | – | – | – | – | –
10 | c1ccc(N=C2SC(=NNc3ccccc3)SC2=Nc2ccccc2)cc1 | > 100 | > 100 | > 100 | > 100 | > 100 | > 100 | > 100 | > 100 | > 100 | – | – | – | – | – | – | – | – | – | –
11 | O=C(c1cc(Cl)cc(Cl)c1)N(C(=S)OC12CC3CC(CC(C3)C1)C2)c1ccccc1 | > 100 | > 100 | – | – | > 100 | > 100 | > 100 | > 100 | > 100 | > 100 | – | – | – | – | – | – | – | – | –
12 | NC(=O)CCC(NCc1c2ccccc2[n+]([O-])c2ccccc12)C(=O)O (stereo not given) | > 100 | > 100 | > 100 | > 100 | – | > 100 | > 100 | > 100 | > 100 | – | – | – | – | – | – | – | – | – | –
13 | C/C(=N\Nc1ccc([N+](=O)[O-])cc1[N+](=O)[O-])c1ccc2ccccc2n1 | – | > 100 | > 100 | > 100 | > 100 | > 100 | 94.4 | > 100 | > 100 | > 100 | – | – | – | – | – | – | – | – | –
14 | CCP(=O)(CC)C(Cl)(Cl)C(O)C(C)(C)C (stereo not given) | > 100 | > 100 | > 100 | > 100 | – | > 100 | > 100 | > 100 | > 100 | – | – | – | – | – | – | – | – | – | –
15 | O=C1c2ccccc2CC12Cc1cc3c(cc1C2=O)CCC3 (stereo not given) | > 100 | > 100 | > 100 | > 100 | > 100 | – | > 100 | > 100 | > 100 | – | – | – | – | – | – | – | – | – | –
16 | C=C=C(C)[Si](C)(C)C | > 100 | > 100 | > 100 | > 100 | > 100 | > 100 | > 100 | > 100 | > 100 | – | – | – | – | – | – | – | – | – | –
17 | Cc1ccc(C(=O)C(C)N)cc1 (stereo not given) | > 100 | > 100 | > 100 | > 100 | > 100 | > 100 | > 100 | > 100 | > 100 | – | – | – | – | – | – | – | – | – | –
18 | CC(=O)OC1CC2CCC1(C)C2(C)C (stereo not given) | > 100 | – | > 100 | > 100 | > 100 | > 100 | > 100 | > 100 | > 100 | – | – | – | – | – | – | – | – | – | –
